This assay addresses T1, SmChiP (chitoporin) (Serratia marcescens, UniProt I7GPX7).
T1 sequence (I7GPX7 28-467): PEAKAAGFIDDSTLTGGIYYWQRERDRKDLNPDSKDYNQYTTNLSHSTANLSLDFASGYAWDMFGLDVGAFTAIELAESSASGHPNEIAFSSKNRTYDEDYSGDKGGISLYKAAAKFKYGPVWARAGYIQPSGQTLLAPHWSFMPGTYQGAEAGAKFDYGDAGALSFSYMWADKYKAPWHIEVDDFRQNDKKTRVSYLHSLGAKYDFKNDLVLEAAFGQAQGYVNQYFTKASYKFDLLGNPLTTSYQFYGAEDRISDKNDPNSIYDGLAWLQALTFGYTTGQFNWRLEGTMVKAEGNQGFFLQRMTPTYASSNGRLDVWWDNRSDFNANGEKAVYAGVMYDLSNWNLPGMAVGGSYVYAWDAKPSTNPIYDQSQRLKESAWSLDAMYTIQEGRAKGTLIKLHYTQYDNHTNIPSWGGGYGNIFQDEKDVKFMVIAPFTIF
Briefly: isothermal titration calorimetry. Conditions: detergent-solubilized protein; one-site binding model. On the technique in general: Isothermal titration calorimetry measures the heat released or taken up as one component is titrated into another.

Broadly, the Kd is a measure of binding affinity in units of concentration.

`CC(=O)N[C@H]1[C@H](O[C@H]2[C@H](O)[C@@H](NC(C)=O)[C@H](O[C@H]3[C@H](O)[C@@H](NC(C)=O)C(O)O[C@@H]3CO)O[C@@H]2CO)O[C@H](CO)[C@@H](O[C@@H]2O[C@H](CO)[C@@H](O[C@@H]3O[C@H](CO)[C@@H](O[C@@H]4O[C@H](CO)[C@@H](O)[C@H](O)[C@H]4NC(C)=O)[C@H](O)[C@H]3NC(C)=O)[C@H](O)[C@H]2NC(C)=O)[C@@H]1O` (some centres unmarked) [chitohexaose] registered a Kd of 17 ± 0.6 µM.
For `CC(=O)N[C@H]1[C@H](O[C@H]2[C@H](O)[C@@H](NC(C)=O)[C@H](O[C@H]3[C@H](O)[C@@H](NC(C)=O)C(O)O[C@@H]3CO)O[C@@H]2CO)O[C@H](CO)[C@@H](O[C@@H]2O[C@H](CO)[C@@H](O[C@@H]3O[C@H](CO)[C@@H](O)[C@H](O)[C@H]3NC(C)=O)[C@H](O)[C@H]2NC(C)=O)[C@@H]1O` (some centres unmarked) [chitopentaose], the Kd came to 23 ± 2 µM.

These data come from publication PMC9582717 (The Journal of Biological Chemistry, 2022).
